Tested on: P12-Ichikawa
Experiment: cell viability relative to DMSO control; higher = less cytotoxic
Details: 48 h
Outline: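 Viability is expressed as a percentage of DMSO wells within each plate, and cell-free wells serve as background. Seeding densities in the 1536-well plates (5 μl) were 500 cells/well for NOMO1 or SEM leukemia cells and 1000 cells/well for P12-Ichikawa. Each line was adapted for at least four passages in each medium. Library compounds in DMSO were pin-dosed at 47 μM to 0.79 nM (11 points, threefold), and CellTiter-Glo One luminescence was read after 48 h at 37°C.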

[1] = RPMI 5 mM glucose + 10% FBS, 0.000781 µM
[2] = RPMI 5 mM glucose + 10% FBS, 0.00234 µM
[3] = RPMI 5 mM glucose + 10% FBS, 0.00702 µM
[4] = RPMI 5 mM glucose + 10% FBS, 0.0211 µM
[5] = RPMI 5 mM glucose + 10% FBS, 0.0632 µM
[6] = RPMI 5 mM glucose + 10% FBS, 0.19 µM
[7] = RPMI 5 mM glucose + 10% FBS, 0.569 µM
[8] = RPMI 5 mM glucose + 10% FBS, 1.71 µM
[9] = RPMI 5 mM glucose + 10% FBS, 5.12 µM
[10] = RPMI 5 mM glucose + 10% FBS, 15.4 µM
[11] = RPMI 5 mM glucose + 10% FBS, 46.1 µM
[12] = RPMI 5 mM glucose + 10% dialyzed FBS, 0.000781 µM
[13] = RPMI 5 mM glucose + 10% dialyzed FBS, 0.00234 µM
[14] = RPMI 5 mM glucose + 10% dialyzed FBS, 0.00702 µM
[15] = RPMI 5 mM glucose + 10% dialyzed FBS, 0.0211 µM
[16] = RPMI 5 mM glucose + 10% dialyzed FBS, 0.0632 µM
[17] = RPMI 5 mM glucose + 10% dialyzed FBS, 0.19 µM
[18] = RPMI 5 mM glucose + 10% dialyzed FBS, 0.569 µM
[19] = RPMI 5 mM glucose + 10% dialyzed FBS, 1.71 µM
[20] = RPMI 5 mM glucose + 10% dialyzed FBS, 5.12 µM
[21] = RPMI 5 mM glucose + 10% dialyzed FBS, 15.4 µM
[22] = RPMI 5 mM glucose + 10% dialyzed FBS, 46.1 µM
[23] = HPLM + 10% dialyzed FBS, 0.000781 µM
[24] = HPLM + 10% dialyzed FBS, 0.00234 µM
[25] = HPLM + 10% dialyzed FBS, 0.00702 µM
[26] = HPLM + 10% dialyzed FBS, 0.0211 µM
[27] = HPLM + 10% dialyzed FBS, 0.0632 µM
[28] = HPLM + 10% dialyzed FBS, 0.19 µM
[29] = HPLM + 10% dialyzed FBS, 0.569 µM
[30] = HPLM + 10% dialyzed FBS, 1.71 µM
[31] = HPLM + 10% dialyzed FBS, 5.12 µM
[32] = HPLM + 10% dialyzed FBS, 15.4 µM
[33] = HPLM + 10% dialyzed FBS, 46.1 µM

| SMILES | cell viability [1] [%] | cell viability [2] [%] | cell viability [3] [%] | cell viability [4] [%] | cell viability [5] [%] | cell viability [6] [%] | cell viability [7] [%] | cell viability [8] [%] | cell viability [9] [%] | cell viability [10] [%] | cell viability [11] [%] | cell viability [12] [%] | cell viability [13] [%] | cell viability [14] [%] | cell viability [15] [%] | cell viability [16] [%] | cell viability [17] [%] | cell viability [18] [%] | cell viability [19] [%] | cell viability [20] [%] | cell viability [21] [%] | cell viability [22] [%] | cell viability [23] [%] | cell viability [24] [%] | cell viability [25] [%] | cell viability [26] [%] | cell viability [27] [%] | cell viability [28] [%] | cell viability [29] [%] | cell viability [30] [%] | cell viability [31] [%] | cell viability [32] [%] | cell viability [33] [%] |
| --- | --- | --- | --- | --- | --- | --- | --- | --- | --- | --- | --- | --- | --- | --- | --- | --- | --- | --- | --- | --- | --- | --- | --- | --- | --- | --- | --- | --- | --- | --- | --- | --- | --- |
| CC[C@@]1(O)C(=O)OCC/2=C1/C=C3\N(CC4=CC5=CC(=CC=C5N=C34)O)C2=O | 122 | 120 | 117 | 91.5 | 11.4 | 9.55 | 8.05 | 7.2 | 6.2 | 5.86 | 6.96 | 115 | 127 | 106 | 88.7 | 16.9 | 12.1 | 10.2 | 6.53 | 6.88 | 6.54 | 8.98 | – | – | – | – | – | – | – | – | – | – | – |
| COc1cc2nc(N3CCN(C(=O)C4CCCO4)CC3)nc(N)c2cc1OC (stereo unspecified) | – | – | – | – | – | – | – | – | – | – | – | – | – | – | – | – | – | – | – | – | – | – | 112 | 123 | 123 | 127 | 130 | 130 | 131 | 124 | 127 | 139 | 136 |
| CCN(CC)CCCCNc1ncc2c(n1)N(C)C(=O)N(c1c(Cl)c(OC)cc(OC)c1Cl)C2 | – | – | – | – | – | – | – | – | – | – | – | 120 | 110 | 122 | 119 | 120 | 117 | 106 | 103 | 121 | 90.9 | 22.8 | 118 | 121 | 120 | 118 | 117 | 115 | 113 | 121 | 114 | 105 | 11.8 |
| Nc1cc(C(F)(F)F)c(-c2cc(N3CCOCC3)nc(N3CCOCC3)n2)cn1 | 111 | 124 | 135 | 137 | 133 | 126 | 94.8 | 67.2 | 15.7 | 13.2 | 7.95 | – | – | – | – | – | – | – | – | – | – | – | – | – | – | – | – | – | – | – | – | – | – |

From the supplement of paper PMC11451515
